Data on one compound can be found in ChEMBL document CHEMBL3832547, “Goodman and Gilman Ed. 12 | The Pharmaceutical Basis of Therapeutics| Table AII-I: Pharmacokinetic Data” (2011).

Usually CL/F stands for the apparent clearance, not corrected for the fraction that reaches the circulation. A word on the Cmax: it is the peak of the concentration-time curve. The Tmax is the time at which the peak concentration occurs.

The nature of series [1]: (§1) Pharmacokinetic parameters for Letrozole evaluated following single oral administration of Letrozole tablets. Conditions: human, in vivo, 2.5 mg. The format is ADME, organism-based. On the set-up: dose 2.5 mg, route oral.
The next series relates to Homo sapiens. The description is as §1. Conditions: in vivo. On the set-up: dose 2.5 mg, route oral. The format is ADME, organism-based.

For `N#Cc1ccc(C(c2ccc(C#N)cc2)n2cncn2)cc1` [LETROZOLE], in series [1], the CL/F turned out to be 0.58 mL/min/kg, the peak level (Cmax) was 115 nM and the time to peak (Tmax) is 1 h. For the same compound, in series [1] (read-out: Excretion), the dose excreted was 3.9%. Besides, the Vd in the series on Homo sapiens turned out to be 1.87 L/kg.
